Measurements as given in patent US10968212B2 (ACCUTAR BIOTECHNOLOGY INC., priority 2016, dated 2021).

Columns and labels:
MCF-7 tumors = test: Tumor growth inhibition in MCF-7 breast cancer-derived mouse xenograft model; type: in vivo; conditions: 10 mg/day, i.p., 3 weeks, BALB/c nude mice with MCF-7 tumors; FIG. 14A
Method: For the tumor growth inhibition study, female BALB/c nude mice (with supplemental 17-β estradiol) bearing MCF-7 tumors (mean tumor volume 211 mm^3) were i.p. treated with Accutar-153 (10 mg/day) in vehicle or by vehicle only for 3 weeks. Body weight and tumor volume (tumor volume=[length×width^2]/2) were monitored twice weekly. At the end of study, plasma, tumor tissues and organs (brain, liver, kidney) for each animal were collected for further analysis.
Female BALB/c nude mice (supplemented with 17-β estradiol) bearing MCF-7 tumors (mean tumor volume was 211 mm^3) were treated with the compound:
[drawing 197] (10 mg/day, i.p.) in vehicle, or by vehicle only, for 3 weeks. Body weight and tumor volume (tumor volume=[length×width^2]/2) were monitored twice weekly. At the end of study, plasma, tumor tissues and organs (brain, liver, kidney) for each animal were collected for further analysis. The tumor growth inhibition studies were performed twice.

Estrogen Receptor alpha = target: T1, Estrogen Receptor alpha (Homo sapiens, UniProt P03372); test: Estrogen Receptor alpha degradation in MCF-7 cells (immunoblot, 20 hours); type: cell-based; conditions: concentrations from 1 nM to 1 μM, FIGS. 3A and 3B
T1 construct: endogenous in cells; host or cells: MCF7 or LTED cells
T1 sequence (P03372 1-595): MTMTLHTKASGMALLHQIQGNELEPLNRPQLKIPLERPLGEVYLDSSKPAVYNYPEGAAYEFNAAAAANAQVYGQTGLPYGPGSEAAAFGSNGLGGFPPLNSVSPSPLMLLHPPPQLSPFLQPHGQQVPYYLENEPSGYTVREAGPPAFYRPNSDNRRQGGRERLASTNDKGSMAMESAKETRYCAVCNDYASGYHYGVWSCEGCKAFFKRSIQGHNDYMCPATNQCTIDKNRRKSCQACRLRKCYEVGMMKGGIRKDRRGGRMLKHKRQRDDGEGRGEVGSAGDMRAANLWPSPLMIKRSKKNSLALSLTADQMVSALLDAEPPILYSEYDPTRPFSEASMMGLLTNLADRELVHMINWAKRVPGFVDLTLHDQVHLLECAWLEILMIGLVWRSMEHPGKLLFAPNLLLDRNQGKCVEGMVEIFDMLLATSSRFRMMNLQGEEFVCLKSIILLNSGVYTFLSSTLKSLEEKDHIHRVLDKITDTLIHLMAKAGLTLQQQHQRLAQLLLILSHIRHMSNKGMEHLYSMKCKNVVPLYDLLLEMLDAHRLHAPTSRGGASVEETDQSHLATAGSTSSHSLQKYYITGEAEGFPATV
Method: MCF-7 cells were maintained in high glucose DMEM (Corning cellgro, 15-013-CM), supplemented with 10% FBS, 1× L-Glutamine (29.2 mg/mL) and 1× Penicillin Streptomycin (10,000 I.U./mL Penicillin; 10,000 μg/mL Streptomycin; Corning, 30-009-CI). The resulting MCF-7 cells were plated into a 24-well plate at 1×10^5 cells/well, and the following day, compound was added to the cell medium at various concentrations. After treating the cell medium with compound, the cell plates were incubated for 20 hours at 37° C. Upon cooling, cells were lysed by addition of SDS loading buffer. The resulting cell lysates were subjected to immunoblotting by standard protocol. with primary antibodies of mouse anti-human ERα monoclonal antibody (Santa Cruz Biotechnology Inc., #SC-8002) and 1:1000 goat anti-human actin polyclonal antibody (Santa Cruz Biotechnology Inc. #SC-1616). Western blot results visualized using picoLUCENT™ PLUS-HRP ECL (G Biosciences, 786-165) and LI-CORC digit imaging system.

Compound | tumor weight, treatment group versus control group (MCF-7 tumors) | degradation of Estrogen Receptor alpha compared with the control (Estrogen Receptor alpha)
CC/C(=C(\c1ccc(O)cc1)c1ccc(OCCNC(=O)CCCCCCC(=O)N[C@H](C(=O)N2C[C@H](O)C[C@H]2C(=O)NCc2ccc(-c3scnc3C)cc2)C(C)(C)C)cc1)c1ccccc1 | significant decrease in tumor weight | –
CC/C(=C(\c1ccccc1)c1ccc(OCCN(C)CCCCCCC(=O)N[C@H](C(=O)N2C[C@H](O)C[C@H]2C(=O)NCc2ccc(-c3scnc3C)cc2)C(C)(C)C)cc1)c1ccccc1 [Compound 4] | – | resulted in degradation of Estrogen Receptor alpha when compared with the control
